{"source": "patent US20260130900A1", "about": "“Controlled Release Pharmaceutical Composition” (Daewoong Pharmaceutical Co., Ltd., priority 2022, published 2026)", "assay": "Single-dose escalating clinical testing, safety/tolerability of the active ingredient", "type": "in vivo, human", "source_text": "In order to confirm the safety/tolerability of the active ingredient in the human body, side effects were checked in healthy adult subjects.\nThe clinical testing was designed for 32 healthy adult subjects in a randomized, double-blinded, placebo-controlled, single-dose escalating manner, as shown in Table 1 below. The capsule tablets used in this clinical testing were produced by using Vcaps® enteric-coated capsules containing only the active ingredient in hydrochloride form without additional excipients, and filling capsules by volume. The ingredients of the enteric-coated tablet (1 tablet) used in the clinical testing are shown in Table 2 below, and were named ‘Comparative Example 1’. In addition, for the enteric-coated tablet administrated group, 5 tablets were administered at a time."}
{"smiles": "O[C@H]1CCCN[C@@H]1CCCn1cnc2c(Cl)c(Cl)ccc21", "note": "[API, (2R,3S)-2-(3-(4,5-dichloro-1H-benzo[d]imidazol-1-yl)propyl) piperidin-3-ol 1HCl]", "values": [{"measurement": "time of occurrence of nausea and vomiting side effects versus exposure in the body", "setting": "single administration, FIG. 1", "value": "the majority of cases occur before the blood concentration in the body increases"}, {"measurement": "most frequently occurring adverse reactions", "setting": "single oral administration 100-600 mg, enteric coated capsule or tablet, healthy adult subjects", "value": "gastrointestinal adverse reactions including nausea, vomiting, diarrhea, and abdominal pain"}]}
